Test results published in paper PMC6917776, “Discovery of a chemical probe for PRDM9” (Nature Communications, 2019).
“And” between values parts separate entries of the source, which are not always exact repeats. Equal entries are not always repeated. “Also recorded” adds a separate entry of the source.

Legend:
[1] = system: NanoLuc-tagged PRDM9 (residues 135–285); assay: NanoLuciferase thermal shift assay (NALTSA) in HEK293T cells; assay type: cell-based, human; conditions: for Tm of PRDM9 in cells (NALTSA): 0.1% DMSO, DMSO control Tm 52 ± 0.3 °C; for ∆Tm (°C): Fig. 5b, replicates; for Normalized_Signal: Fig. 5a, independent replicates
Protocol: Cells treated with 0.1% DMSO alone were used as a control.
Shown is the mean ± SEM of three biological replicates. Boxes indicate the mean values. P-values calculated using an unpaired Welch’s two-tailed t-test, *p-value = 0.017. Source data are provided as a Source Data file.
NALTSA assays were performed as previously described. Briefly, HEK293T cells were plated in 6-well plates at a density of 1.5 × 10^5 cells/mL. The following day, cells were transfected with 2 µg of C-terminally NanoLuc®-tagged PRDM9 (residues 135–285) with X-tremeGene HP DNA Transfection Reagent (Roche). Cells were incubated for 24 h, trypsinized and resuspended at 1.5 × 10^5 cells/mL in 1x PBS supplemented with protease inhibitors. Cell suspensions were incubated at 37 °C with 10 μM compound or 0.1% DMSO alone for 1 h. Sixty microliters of cells was dispensed per well of a 96-well PCR plate followed by heating across a temperature gradient for 3 min on a Mastercycler® thermal cycler (Eppendorf). After heating, samples were transferred to a 96-well white plastic plate (Corning) and Glo® Substrate (Promega) was added to each well at 1:1000 final dilution. NanoLuciferase signal was read at 450 nm (filter: 450 nm/BP 80 nm) on a CLARIOstar microplate reader (Mandel).

[2] = system: spermatocytes; assay: Testis microinjection, meiotic chromosome spreads (SYCP1/SYCP3 staining); assay type: in vivo, mouse; conditions: wild type mice, 2 µl of 1 µM into both testes at P12, analysed at P15
Protocol: Supplementary Figure 14. Comparison of meiotic progression in the presence of MRK -740-NC and MRK-740 treated spermatocytes. Representative images of meiotic chromosome […]
(c) untreated Prdm9-/- mice are presented. At p12, mice were treated with either MRK -740-NC or MRK-740 or received no treatment. Immunofluoresence co -staining was performed with SYCP1 (green) and SYCP3 (magenta) antibodies to visualize the formation of the synaptonemal […]
mice treated with MRK-740-NC.
(1 picture or pasted object on this page, not shown here) […]
Transgenic mouse lines used in this study
Prdm9KO 2, mice have been described and were maintained on a C57BL/6 background. Mice were housed under standard conditions, were maintained on a 12- hour light/dark cycle, were fed a standard chow diet containing 6% crude fat, and were treated in compliance with the institutional guidelines for animal care and use. All experimental protocols were approved by the Animal Care and Use Committee of Biological Resource Centre at Biopolis, A*STAR, […]
Testis microinjection protocol
Seminiferous tubule microinjection was performed as previously described 3,4. At postnatal day 12 (P12) A small incision was made in the abdomen of the mouse and testes were exposed by pulling the abdominal fat pad. Testis were injected using a micro-capillary pipette injector (made in-house). […]

Compound | Tm of PRDM9 in cells (NALTSA) ([1]; 10 µM compound, 1 h) | ∆Tm (°C) [1] | Normalized_Signal ([1]; Temperature 41.9 °C) | Normalized_Signal ([1]; Temperature 42.4 °C) | Normalized_Signal ([1]; Temperature 43.6 °C) | Normalized_Signal ([1]; Temperature 45.5 °C) | Normalized_Signal ([1]; Temperature 47.8 °C) | Normalized_Signal ([1]; Temperature 50.4 °C) | Normalized_Signal ([1]; Temperature 53.1 °C) | Normalized_Signal ([1]; Temperature 55.8 °C) | Normalized_Signal ([1]; Temperature 58.1 °C) | Normalized_Signal ([1]; Temperature 60.1 °C) | Normalized_Signal ([1]; Temperature 61.5 °C) | Normalized_Signal ([1]; Temperature 62.1 °C) | Meiotic phenotype of spermatocytes, pachytene stage (in words) [2] | ∆Tm of PRDM9 in cells (NALTSA) ([1]; 10 µM compound, 1 h, versus DMSO)
COc1cc(OC)cc(-c2noc(N3CCN(C)C4(CCN(c5ccccc5)CC4)C3)n2)c1 [MRK-740-NC] | 51.6 ± 0.3 °C | 0.2175 °C and -0.9409 °C and -0.4232 °C | 1 | 0.9008 and 0.9609 and 1.092 | 0.8855 and 0.9556 and 0.9997 | 0.873 and 0.8101 and 0.9461 | 0.7977 and 0.6572 and 0.8375 | 0.6003 and 0.5454 and 0.5984 | 0.5018 and 0.4469 and 0.4089 | 0.3624 and 0.3667 and 0.3326 | 0.3387 and 0.2885 and 0.2383 | 0.2284 and 0.1546 and 0.1556 | 0.2018 and 0.1276 and 0.1034 | 0.1991 and 0.1124 and 0.111 | Normal synaptonemal complex formation; also recorded: no overt meiotic defects | –
COc1cc(OC)cc(-c2noc(N3CCN(C)C4(CCN(c5ccnc(C)c5)CC4)C3)n2)c1 [MRK-740] | 54 ± 0.2 °C | 2.141 °C and 1.141 °C and 2.73 °C | 1 | 1.082 and 0.9671 and 1.026 | 1.044 and 1.056 and 1.097 | 1.058 and 1.067 and 0.973 | 1.041 and 0.9815 and 0.9273 | 0.9323 and 0.8369 and 0.6881 | 0.6552 and 0.5708 and 0.5431 | 0.4561 and 0.4452 and 0.3801 | 0.3081 and 0.2709 and 0.2289 | 0.1968 and 0.1844 and 0.1466 | 0.1518 and 0.1586 and 0.1205 | 0.1417 and 0.1648 and 0.1053 | Abnormal synaptonemal complex formation; also recorded: meiotic defects including non-homologous synapsis or failed pairing of chromosomal homologs | 2 °C
